{"source": "patent US20230103554A1", "about": "“TNFa SIGNALING [sequence] TUMOR-PROMOTING INFLAMMATION THAT CAN BE TARGETED TO THERAPY” (Baylor College of Medicine, priority 2020, published 2023)", "type_in_all_cases": "cell-based, human", "key": {"[1]": {"tested_on": "NF-κB signaling in NB cells", "assay": "Intracellular IκBα in NB population of co-culture (PhosFlow flow cytometry)", "procedure": "(§1) Monocytes were directly cultured with wild-type or TNF, TNFR1, TNFR2 KO NB cell lines in ULA plates for 24 hours. Activation of NF-kB in monocytes and NB was measured by flow cytometry and cytokine production measured by ELISA from co-culture supernatant. To evaluate the contact-dependence of monocyte activation by NB, monocytes were cultured in ULA plates with seven-day NB conditioned medium mixed 1:1 with complete monocyte medium for 24 hours and analyzed for IL-6 production. To assess the growth advantage of NB cultured with monocytes, NB-luc cell lines and monocytes were seeded in tissue culture-treated white 96-well plates (1:1 ratio) and cultured for four days. Luminescence was measured using a TECAN Spark plate reader (TECAN). To evaluate changes in proliferation, NB was pulsed for 10 minutes in CellTrace Violet (2 μM, Invitrogen) and seeded at 100,000 cells per well in a 12-well tissue culture-treated plate. Monocytes were added directly to the NB monolayer at a density of 100,000 per well and incubated for four days. CellTrace Violet expression was analyzed by flow cytometry.\nTo evaluate the expression of TNFα in NB and monocytes, cells were first stimulated with LPS (50 ng/mL) in the presence of GolgiStop (BD Biosciences) and fixed using CytoFix/Cytoperm buffer (BD Biosciences). Cells were then stained with TNFα-PE (BD Biosciences). To evaluate the expression of TNFR1 and TNFR2 on NB and monocytes, cells were stained with TNFR1-BV421 and TNFR2-APC (BD Biosciences) in FACS staining buffer containing 0.05% sodium azide to prevent receptor/antibody processing. To estimate changes in NF-kB expression, treated co-cultures were first stained with ZombieViolet (1 μL/test, Biolegend) to counterstain dead cells and APC-H7 CD45 and/or FITC-CD14 to label monocytes for 20 minutes at room temperature. […] All flow samples were run using an LSRII 5-laser flow cytometer (Texas Children's Hospital Cancer Center Flow Cytometry Core, Houston, Tex.) and analyzed using FlowJo Software (Treestar)."}, "[2]": {"tested_on": "cytokines/chemokines in CHLA-255-monocyte co-cultures", "assay": "Multiplex Luminex cytokine array on co-culture supernatants", "details": "CHLA-255 + monocytes, 10 μg/mL etanercept, 24 hours"}, "CHLA-255-luc": {"tested_on": "CHLA-255-luc", "assay": "NB luminescence growth/viability in monocyte co-culture", "details": "10 μg/mL etanercept", "procedure": "(FIG. 8A) Luciferase expressing CHLA-255-luc and SK-NAS-luc were cultured in 1-16,000 pg/mL rhTNF for 48 hours and viability of the cells was measured by luminescence. Data was normalized to untreated control and graphed as % Viability versus Log10 of TNF concentration.\n(15A) TNFα level within co-culture supernatant was determined by TNFα ELISA. Mean TNFα concentration±SD of representative data from two monocyte donors run in triplicate. (FIG. 15B) Supernatant IL-6 levels were determined by ELISA. Mean IL-6 concentration±SD of representative data from two monocyte donors run in triplicate (FIG. 15C) Intracellular IκBα expression level within CD14+GD2− monocyte population was determined by flow cytometry and IκBα MFI was normalized to monocyte only control. Mean normalized IκBα MFI±SD and representative from experiments with two monocyte donors run in triplicate. (FIG. 15D) Intracellular IκBα expression level within CD14-GD2+NB population was determined by flow cytometry and IκBα MFI was normalized to NB only control. Mean normalized IκBαMFI±SD, representative from experiments with two monocyte donors run in triplicate. (FIG. 15E) Multiplex Luminex cytokine assay was performed on co-culture supernatants. […] NB luminescence was used to evaluate relative viability of cell line. Results are normalized mean luminescence±SD, n=6 replicates per condition. […] Cells undergoing multiple (2+) divisions were quantified as a percentage of total cells and normalized to NB (0) and Ctrl (1). […]\nMonocytes were directly cultured with wild-type or TNF, TNFR1, TNFR2 KO NB cell lines in ULA plates for 24 hours. Activation of NF-kB in monocytes and NB was measured by flow cytometry and cytokine production measured by ELISA from co-culture supernatant. To evaluate the contact-dependence of monocyte activation by NB, monocytes were cultured in ULA plates with seven-day NB conditioned medium mixed 1:1 with complete monocyte medium for 24 hours and analyzed for IL-6 production. […] Luminescence was measured using a TECAN Spark plate reader (TECAN). […] CellTrace Violet expression was analyzed by flow cytometry."}, "sTNFα production": {"tested_on": "sTNFα production", "assay": "NB-monocyte co-culture, TNFα ELISA of supernatant", "details": "24 hours", "procedure": "as §1\nCytokines released by monocytes were detected within co-culture supernatants using the Human TNF-alpha Quantikine ELISA Kit (TNFα, R&D Systems) and the Human IL-6 Quantikine ELISA Kit (IL-6, R&D Systems) according to manufacturer's guidelines. ELISA plates were read using a TECAN Spark plate reader (TECAN). Global cytokine regulation was evaluated using a custom Luminex panel containing the following cytokines: CX3CL1, CXCL10, EGF, FGF-2, Flt3L, G-CSF, GM-CSF, IL-1α, IL-1β, IL-1Ra, IL-4, IL-6, IL-8, IL-10, IL-12 (p40), IL-12 (p′70), M-CSF, MCP-1, MCP-3, MDC, MIP-1α, MIP-1β, TGFα, TNFα, TNFβ, and VEGF-A (Human Cytokine Panel A, Millipore-Sigma)."}}, "data": [{"substance": "etanercept", "values": [{"measurement": "reversal of IκBα degradation in NB", "setting": "[1]; CHLA-255 + monocytes, 10 μg/mL etanercept, 24 hours (FIG. 15D)", "result": "partial"}, {"measurement": "IκBα levels in NB cells", "setting": "[1]; SK-N-AS + monocytes, etanercept, 24 hours", "result": "restored IκBα levels to the levels found in NB cells cultured alone"}, {"measurement": "induction/upregulation of G-CSF, GM-CSF, IL-1α, IL-1β, IL-6, IL-10, IL-12-p40, IP-10, MIP-1β", "setting": "[2]", "result": "completely reversed the induction/upregulation of all nine cytokines/chemokines"}, {"measurement": "monocyte-induced proliferation above baseline (luminescence)", "setting": "CHLA-255-luc; CHLA-255-luc + monocytes, 72 hours (FIG. 8B)", "result": "reduces this"}, {"measurement": "NB luminescence (growth/viability) increase induced by monocytes", "setting": "CHLA-255-luc; CHLA-255-luc + monocytes, 72 hours, vs IgG control (FIG. 15F)", "result": "completely abrogated the effect of monocytes on NB cells"}, {"measurement": "effect of monocyte-induced TNF signaling on NB cells", "setting": "CHLA-255-luc; CHLA-255-luc and SK-N-AS-luc + monocytes, 72 hours (FIG. 8B)", "result": "reversed the effect of monocyte-induced TNF signaling on NB cells"}, {"measurement": "sTNFα production", "setting": "sTNFα production; CHLA-255 + monocytes, 10 μg/mL etanercept, vs IgG control (FIG. 15A)", "result": "almost entirely blocked"}, {"measurement": "TNFα level in co-culture supernatant", "setting": "sTNFα production; SK-N-AS + monocytes, vs IgG control", "result": "decrease"}]}]}
